From patent publication US20180221433A1, “ANGIOTENSINS IN MUSCULAR DYSTROPHY” (University of Iowa Research Foundation, priority 2013, published 2018)
Positions of bridges follow the written chain, without caps; N, C: chain ends. No end group written: not given here.

Key:
Assay type in all cases: in vivo, mouse
Sgcd −/− mice [1] = assay: H&E and Masson's Trichrome stain of quadriceps muscle for fibrosis, Example 4; conditions: osmotic minipump 8 weeks, TXA127 500, Pancyte 50, TXA301 50 μg/kg/day, vs saline, FIG. 10
Method: (§1) A total of 32 Sgcd −/− mice were randomly assigned to one of four treatment groups (n=8 in each): a saline group (vehicle) a TXA127 group, a Pancyte group, and a TXA301 group. The doses of Angiotensin (1-7) peptides administered was 500 μg/kg/day for TXA127, 50 μg/kg/day for Pancyte, and 50 μg/kg/day for TXA301. Osmotic minipumps containing the treatments were implanted in mice at 28-35 weeks of age, and the angiotensin (1-7) peptides were infused for 8 weeks. For the last three weeks of treatment, the mice were put in cages with running wheels attached to calculate the amount of voluntary exercise performed by each animal. Total number of wheel revolutions (distance ran) were collected daily. At the end of 8 weeks of treatment, quadriceps muscles were harvested from the mice for histopathological and oxidative stress analyses.
An H&E stain was used to examine the dystrophic morphology of the quadriceps muscles of the mice.

Sgcd −/− mice [2] = assay: Voluntary running-wheel exercise in Sgcd −/− mice, Example 4; conditions: for amount of voluntary exercise performed (average running-wheel revolutions, weeks 6, 7 and 8) / amount of exercise performed (accumulated totals over the three week test period): osmotic minipump 8 weeks, vs saline; for amount of voluntary exercise performed (average running-wheel revolutions, weeks 6, 7 and 8): TXA127 500, Pancyte 50, TXA301 50 μg/kg/day, FIG. 8; for amount of exercise performed (accumulated totals over the three week test period): TXA127 500, TXA301 50 μg/kg/day, FIG. 9
Source text: In this Example, Sarcoglycan delta deficient mice (Sgcd−/−), an established mouse model of Limb Girdle Muscular Dystrophy-2F (LGMD-2F), was used to examine the effects of angiotensin (1-7) peptides on the progression of functional impairment and fibrosis in sufferers of the disease.
as §1

Sgcd −/− mice [3] = assay: Masson Trichrome stain of skeletal muscle (quadriceps) for fibrosis, Example 2
Method: (§2) Data were collected over 2-3 days, and 24 hour averages were calculated. Separate groups of control and Sgcd−/− mice were infused with Ang-(1-7) (300 ng/kg/min) for 8 weeks beginning at 3 weeks of age. Measurements were obtained in these mice using the same protocols as described above.
(§3) To assess skeletal muscle phenotypes, paraffin sections of skeletal muscle (quadriceps) were stained with Masson Trichrome to assess histopathology and fibrosis. Frozen sections of skeletal muscle were incubated with polyclonal anti-δ and anti-β sarcoglycan primary antibody, a nuclear stain, and Alexa Fluor 488. AT1R (Ang type 1 receptor) and Mas (Ang(1-7) receptor) were detected with rabbit anti-AT1R, and anti-Mas nuclear stains, and secondary antibody goat anti-rabbit IgG. Oxidative stress (O2.^−) was measured by dihydrocthidium (DHE) fluorescence.
(§4) Data in this example are presented as ±SE. Results were analyzed by ANOVA, and paired and unpaired t-tests as appropriate, significance was determined at p<0.05.

Sgcd −/− mice [4] = assay: Oxidative stress by DHE stain of quadriceps muscle, Example 4; conditions: TXA127 500 μg/kg/day for 8 weeks, vs saline, FIG. 11
Method: as §1
Dihydroethidium (DHE) was used to examine the degree of oxidative stress in treated Sgcd−/− mice. […] For quantification of degree of fibrosis, an average of six-sections of skeletal quadriceps muscle were obtained from each mouse. An intensity of fluorescence for each mouse was quantified using NIH ImageJ software and normalized to a percentage of the average fluorescence intensity measured in saline-treated Sgcd−/− mice.

Sgcd −/− mice [5] = assay: Radio-telemetry of blood pressure, heart rate and locomotor activity in Sgcd −/− mice
Source text: In this Example, Sgcd −/− mice, a known model of limb-girdle muscular dystrophy, were used to assess the effects of angiotensin (1-7) peptides on skeletal muscle fibrosis, blood pressure, heart rate, cardiac activity, baroreflex sensitivity, oxidative stress, AT1R receptor expression, and resting cardiac and vagal sympathetic tone. Sgcd −/− mice are missing a key component of the sarcoglycan complex, specifically, they are missing a link between the F-actin cytoskeleton and the extracellular matrix. This defect causes muscle wasting and weakness due to a reduction in muscle fiber integrity and dysregulation in cell signaling in muscle cells. It has been previously shown that this defect results in a reduction of locomotor activity and autonomic dysfunction at a young age. The autonomic dysfunction is thought to lead to cardiac dysfunction later in life.
(§5) To examine the effects of angiotensin (1-7) peptides on disruption of normal motor activity in Sgcd −/− mice, conscious, young (10-15 wks) Sgcd−/− and control C57BL6 mice were analyzed by radio-telemetry. Radio-telemeters were implanted into the aorta via the left carotid artery under ketamine-xylazine anesthesia when mice were 10 weeks of age. Following recovery, blood pressure, heart rate and locomotor activity were measured 24 hours/day. Blood pressure measurements were sampled at 2000 Hz for 1 hour periods to enable beat-to-beat measurements of systolic arterial pressure and pulse interval (PI). Baroreflex control of heart rate was assessed from spontaneous fluctuations in systolic blood pressure and pulse interval using known sequence techniques.
Osmotic minipumps (Alzet) were implanted with either Ang (1-7) (also referred to as “TXA127”) or vehicle in mice pups at 3 weeks of age, under ketamine-xylazine anesthesia.
as §2, §4

Sgcd −/− mice [6] = assay: Baroreflex sensitivity and cardiac/vasomotor autonomic tone in Sgcd −/− mice; conditions: Ang-(1-7) 300 ng/kg/min for 8 weeks
Method: as §5
Baroreflex sensitivity was calculated from spontaneous fluctuations in systolic blood pressure and pulse interval using the sequence technique. Specifically, baroreflex sensitivity was calculated as the average slope of sequences of 4 or more consecutive blood pressure pulses where the change in blood pressure and pulse interval are positively correlated (r^2>0.85).
Cardiac sympathetic tone and parasympathetic tone were calculated from heart rate responses to the β-adrenergic receptor blocker propranolol and the muscarinic cholinergic receptor blocker methylatropine, respectively. Specifically, resting cardiac sympathetic and parasympathetic (vagal) tone was estimated from heart rate responses to propranolol (1 μg/g, IP) and methylatropine (1 μg/g, IP), respectively. Vasomotor sympathetic tone was calculated from the decrease in mean arterial blood pressure in response to injection of the ganglionic blocker chlorisondamine (12 μg/g, IP).
as §2, §4

Sgcd −/− mice [7] = assay: Oxidative stress (superoxide) by dihydroethidium (DHE) fluorescence in skeletal muscle, Example 2; conditions: Ang-(1-7) 300 ng/kg/min for 8 weeks, vs untreated Sgcd −/−, FIG. 7
Method: as §2, §3, §4

[8] = system: angiotensin type 1 receptors (AT1R); assay: AT1R expression in skeletal muscle sections (Alexa Fluor 488 staining); conditions: Sgcd −/− mice, Ang-(1-7) 300 ng/kg/min for 8 weeks; vs untreated Sgcd −/−; FIG. 6
Method: as §2, §3

In the case of “Asp^1-Arg^2-Val^3-Ser^4-Ile^5-His^6-Cys^7 [PanCyte] (DRVSIHC; bridge 4-7; also: cross link type between Ser4 and Cys7 not given here) [cyclic angiotensin (1-7) peptide analog]”, the “fibrosis in skeletal muscle (quadriceps)” value (Sgcd −/− mice [1]) is reported as “no reduction in fibrosis was observed”.

With “Asp^1-Arg^2-Val^3-Ser^4-Ile^5-His^6-Cys^7 [TXA301] (DRVSIHC; bridge 4-7; also: cross link type between Ser4 and Cys7 not given here) [linear angiotensin (1-7) peptide]” the “fibrosis in skeletal muscle (quadriceps)” value (Sgcd −/− mice [1]) was “some improvement”, the “amount of voluntary exercise performed (average running-wheel revolutions, weeks 6, 7 and 8)” value (Sgcd −/− mice [2]) was “significant improvement” and the “amount of exercise performed (accumulated totals over the three week test period)” value (Sgcd −/− mice [2]) was “significant increases”.

“Asp^1-Arg^2-Val^3-Tyr^4-Ile^5-His^6-Pro^7 [Ang (1-7)]” was tested, and the “fibrosis of skeletal muscle (quadriceps)” value (Sgcd −/− mice [3]; Sgcd −/− mice, Ang-(1-7) 300 ng/kg/min for 8 weeks, vs untreated Sgcd −/−, FIG. 5) was “markedly reduced”, the “levels of fibrosis compared with control C57BL6 mice” value (Sgcd −/− mice [3]; treated Sgcd −/− mice vs control C57BL6 mice, FIG. 5B) was “comparable to control C57BL6 mice” and the “fibrosis in skeletal muscle (quadriceps)” value (Sgcd −/− mice [1]) was “significantly reduced fibrosis”. For the same substance, the “oxidative stress (DHE fluorescence intensity)” value (Sgcd −/− mice [4]) was “significantly attenuated”, the “mean arterial blood pressure” value (Sgcd −/− mice [5]; Sgcd −/− mice, Ang-(1-7) 300 ng/kg/min by osmotic minipump for 8 weeks from 3 weeks of age, vs untreated Sgcd −/−, FIG. 2A) was “not significantly affected” and the “24 hour average heart rate” value (Sgcd −/− mice [5]; Sgcd −/− mice, Ang-(1-7) 300 ng/kg/min for 8 weeks, vs untreated Sgcd −/− controls, FIG. 2B) was “mildly decrease”. The “24 hour average locomotor activity” value (Sgcd −/− mice [5]; Sgcd −/− mice, Ang-(1-7) 300 ng/kg/min for 8 weeks, vs untreated Sgcd −/−, FIG. 3) was “reduction in locomotor activity was drastically reduced”, the “levels of locomotion compared with Control C57BL6 mice” value (Sgcd −/− mice [5]; treated Sgcd −/− mice vs Control C57BL6 mice, FIG. 3) was “did not vary significantly” and the “baroreflex sensitivity (decrease in Sgcd −/− mice)” value (Sgcd −/− mice [6]; FIG. 4A) was “essentially abrogated”. The “vasomotor sympathetic tone (increase in Sgcd −/− mice)” value (Sgcd −/− mice [6]; blood pressure response to chlorisondamine, FIG. 4D) was “essentially abrogated”, the “cardiac vagal tone (decrease in Sgcd −/− mice)” value (Sgcd −/− mice [6]; heart rate response to methylatropine, FIG. 4B) was “essentially abrogated” and the “cardiac sympathetic tone (increase in Sgcd −/− mice)” value (Sgcd −/− mice [6]; heart rate response to propranolol, FIG. 4C) was “essentially abrogated”. For the same substance, the “fold improvement in exercise compared to saline control animals” value (Sgcd −/− mice [2]; TXA127 500 μg/kg/day, accumulated totals weeks 6-8, FIG. 9) was “more than six fold improvement”, the “amount of voluntary exercise performed (average running-wheel revolutions, weeks 6, 7 and 8)” value (Sgcd −/− mice [2]) was “significant improvement” and the “amount of exercise performed (accumulated totals over the three week test period)” value (Sgcd −/− mice [2]) was “significant increases”. The “levels of superoxide (DHE fluorescence)” value (Sgcd −/− mice [7]) was “strongly attenuated” and the AT1R receptor expression [8] was “essentially abrogates the increase in AT1R”.
